Data published in US8993258B2, “Fluorinated voltage sensitive dyes, preparation thereof, and optical methods of use” (The University of Connecticut, priority 2012, dated 2015).

Key:
[1] = One-photon absorption spectra of dyes (λmax abs, logε); assay type: physicochemical
Source text: (§1) Similar methods were used to prepare additional dyes.

[2] = Fluorescence emission spectra and fluorescence quantum yield (FQY) of dyes; assay type: physicochemical
Source text: as §1

[3] = Voltage sensitivity: fluorescence change for a 100 millivolt step in membrane potential
[4] = Photobleaching rate under white light from a xenon lamp; assay type: physicochemical; conditions: single exponential decay fit of absorbance
Procedure, shortened: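 Photostability was scored as a photobleaching rate, expressed relative to the unsubstituted parent dye. Dyes were irradiated with white light from a xenon lamp while absorbance was monitored. The rate was derived by fitting a single exponential decay to the absorbance over time.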

Structure (SMILES)	logε ([1]; Ethanol)	λmax abs ([1]; Ethanol) [nm]	logε ([1]; Lipid vesicles)	λmax abs ([1]; Lipid vesicles) [nm]	logε ([1]; PBS buffer)	λmax abs ([1]; PBS buffer) [nm]	FQY ([2]; Ethanol)	λmax em ([2]; Ethanol) [nm]	FQY ([2]; Lipid vesicles)	λmax em ([2]; Lipid vesicles) [nm]	FQY ([2]; PBS buffer)	Photobleaching rate (Relative to unsubstituted dye) [4]	other results
CCCCN(CCCC)c1ccc2cc(/C=C/c3cc[n+](CCC[N+](CC)(CC)CC)cc3F)ccc2c1 [PY3128]	4.4	545	4.3	495	4.2	506	0.002	720	0.26	632	— (FQY < 0.001)	0.63	Voltage sensitivity ΔF/F per 100 mV ([3]; Ex/Em 590/>695 nm): 6% 590/ >695
CCCCN(CCCC)c1ccc2cc(/C=C/c3cc[n+](CCC[N+](CC)(CC)CC)cc3)ccc2c1F [PY3174]	4.4	481	4.3	444	4.2	401	0.007	704	0.25	610	0.002	0.83	λmax em ([2]; PBS buffer): 666 nm; Voltage sensitivity ΔF/F per 100 mV ([3]; Ex/Em 545/>695 nm): 6% 545/ >695
CCCCN(CCCC)c1ccc2cc(/C=C/c3cc[n+](CCC[N+](CC)(CC)CC)cc3F)ccc2c1F [PY3179]	4.3	509	4.3	465	4.1	414	0.003	720	0.22	632	— (FQY < 0.001)	0.91	Voltage sensitivity ΔF/F per 100 mV ([3]; Ex/Em 572/>695 nm): 18% 572/ >695
CCCCN(CCCC)c1ccc2cc(/C=C/c3c(F)c[n+](CCC[N+](CC)(CC)CC)cc3F)ccc2c1 [PY3184]	4.6	569	4.3	511	4.2	530	0.004	658	0.18	646	— (FQY < 0.001)	1.56	Voltage sensitivity ΔF/F per 100 mV ([3]; Ex/Em 610/>695 nm): 11% 610/ >695
CCCCN(CCCC)c1ccc2cc(/C=C/c3c(F)c[n+](CCC[N+](CC)(CC)CC)c4ccccc34)ccc2c1 [PY3304]	4.4	617	4.2	547	4.0	565	0.001	825	0.03	686	— (FQY < 0.001)	5.26	Voltage sensitivity ΔF/F per 100 mV ([3]; Ex/Em 645/>745 nm): 12% 645/ >745
CCCCN(CCCC)c1ccc2cc(/C=C/c3cc[n+](CCC[N+](CC)(CC)CC)cc3)ccc2c1C(F)(F)F [PY4093]	4.6	449	4.5	418	4.3	430	0.046	687	0.35	597	0.005	0.95	λmax em ([2]; PBS buffer): 715 nm; Voltage sensitivity ΔF/F per 100 mV ([3]; Ex/Em 530/>645 nm): 8% 530/ >645
CCCCN(CCCC)c1ccc2cc(/C=C(\F)c3cc[n+](CCC[N+](CC)(CC)CC)cc3F)ccc2c1 [PY4160]	4.6	558	4.5	500	4.4	513	0.003	710	0.21	660	— (FQY < 0.001)	0.66	Voltage sensitivity ΔF/F per 100 mV ([3]; Ex/Em 602/>695 nm): 10% 602/ >695
CCCCN(CCCC)c1ccc2cc(/C=C/c3c(F)c[n+](CCC[N+](CC)(CC)CC)c4ccccc34)ccc2c1 [PY4221]	4.4	627	4.2	553	4.1	537	— (FQY < 0.001)		0.07	743	— (FQY < 0.001)		Voltage sensitivity ΔF/F per 100 mV ([3]; Ex/Em 670/>780 nm): 6% 670/ >780

The next lines start with results.

logε ([1]; Ethanol)	λmax abs ([1]; Ethanol) [nm]	logε ([1]; Lipid vesicles)	λmax abs ([1]; Lipid vesicles) [nm]	logε ([1]; PBS buffer)	λmax abs ([1]; PBS buffer) [nm]	FQY ([2]; Ethanol)	λmax em ([2]; Ethanol) [nm]	FQY ([2]; Lipid vesicles)	λmax em ([2]; Lipid vesicles) [nm]	FQY ([2]; PBS buffer)	Photobleaching rate (Relative to unsubstituted dye) [4]	Structure (SMILES)	other results
4.5	539	4.4	488	4.2	493	0.001	720	0.16	636	— (FQY < 0.001)	0.63	CCCCN(CCCC)c1ccc2cc(/C=C(\F)c3cc[n+](CCC[N+](CC)(CC)CC)cc3)ccc2c1 [PY3006]	Voltage sensitivity ΔF/F per 100 mV ([3]; Ex/Em 578/>695 nm): 12% 578/ >695
4.4	497	4.3	464	4.0	409	0.001	760	0.26	643	— (FQY < 0.001)	0.62	CCCCN(CCCC)c1ccc2cc(/C=C(\F)c3cc[n+](CCC[N+](CC)(CC)CC)cc3)ccc2c1F [PY4038]	Voltage sensitivity ΔF/F per 100 mV ([3]; Ex/Em 578/>695 nm): 7% 578/ >695
4.4	453	4.4	422	4.2	395	0.006	694	0.30	590	0.004	1.35	CCCCN(CCCC)c1ccc2cc(/C=C(\F)c3cc[n+](CCC[N+](CC)(CC)CC)cc3)ccc2c1C(F)(F)F [PY4125]	λmax em ([2]; PBS buffer): 624 nm; Voltage sensitivity ΔF/F per 100 mV ([3]; Ex/Em 510/>695 nm): 5% 510/ >695
4.3	510	4.2	470	4.0	408	0.003	845	0.23	651	— (FQY < 0.001)	0.89	CCCCN(CCCC)c1ccc2cc(/C=C(\F)c3cc[n+](CCC[N+](CC)(CC)CC)cc3F)ccc2c1F [PY4158]	Voltage sensitivity ΔF/F per 100 mV ([3]; Ex/Em 580/>695 nm): 7% 580/ >695
